From paper PMC5766581, “NF-κB inducing kinase is a therapeutic target for systemic lupus erythematosus” (Nature Communications, 2018)
“Also recorded” adds a separate entry of the source.

How the values were obtained:
human B cells = test: Human B cell anti-IgM proliferation assay; format: cell-based; conditions: Homo sapiens, B-cell; thymidine incorporation, day four
NZB/W F1 mice = test: rAdV-IFNα-accelerated NZB/W F1 lupus model, survival study; format: in vivo, mouse
Procedure: Age-matched (NZB x NZW) F1 mice were purchased from Jackson Laboratory. Fourteen to fifteen weeks old female NZB/W F1 mice were injected i.v. with 1.2 × 10^8 rAD5-CMV-IFNα (rAdV-IFNα) particles (Genentech) to accelerate disease[34],[69]. […] In efficacy studies, proteinuria and survival were tracked through day 84. A 4-week PD study was performed to measure cell subsets, serum Ig, chemokines, cytokines, and gene expression.
Kidneys were immersed in 10% neutral buffered formalin at ambient temperature for 24 h, then paraffin-embedded using routine methods. Four micron histologic sections were stained with Periodic acid–Schiff (PAS) for evaluation of glomerulonephritis and hematoxylin and eosin (H&E) for visual evaluation of interstitial inflammation by light microscopy. Scoring by the pathologist was performed in a blinded fashion. Glomerulonephritis severity scoring was on a 4-point semi-quantitative scale: “0” – normal or mild global lesions in <50% of glomeruli, “1”—global lesions in > 50% of glomeruli, <20% of which are severe (defined as >1 segment with <3 patent capillaries), “2”—global lesions in >50% of glomeruli, 20–80% of which are severe, and “3”— >80% of glomeruli with severe global lesions. Chronic pyelitis, cortical periarteritis, and tubulointerstitial nephritis severity was determined by blinded disease scoring. Severity scores for tubulointerstitial nephritis, periarteritis, and pyelitis were all on 4-point semiquantitative scales: “0”—no significant inflammation, “1”—sparse or focal inflammatory infiltrates, “2”—occasional moderately sized inflammatory infiltrates, and “3”—frequent large inflammatory infiltrates. Proteinuria measurements were done by dipstick (Multistix, Bayer Diagnostics). Protein concentration was assigned a proteinuria score with trace = […] = 1, 100 mg/dl = 2, >300 mg/dl = 4, and dead mice = 5.

C57BL/6 mice = test: Seven-day in vivo B cell survival model; set-up: species or system mouse
FVB mice = test: Imiquimod-induced FVB mouse lupus model; format: in vivo; conditions: 200 mg/kg P.O. BID; Imiquimod treated FVB mice
Procedure: Age-matched female FVB mice were purchased from Jackson Laboratory and randomized into experimental groups upon receipt. Ten-week-old female FVB mice were treated with 10 mg of 5% Imiquimod cream (Taro Pharmaceuticals, USA, Hawthorne, N.Y.) applied to the left ear (three doses per week for the duration of the study). […] Proteinuria and survival were tracked through day 91. Plasma PK measurement was done at day 85 prior to the end of the study.

[1] = system: rhCD40L induced ICOSL expression on human B cells; test: ICOSL expression on human B cell assay; format: cell-based; conditions: B-cell, ICOSL MFI by FACS, mean ± SD, read-out: CD40-induced ICOSL IC50
Procedure: Human B cells were isolated from whole blood. B cells were enriched by RosetteSep protocol (Stem Cell Technologies), and then isolated using Human B cell isolation kit II (Miltenyi). […] Mean fluorescent intensity (MFI) of CD40L and BAFF induced ICOSL expression was measured by flow cytometry on cells stained with anti-CD20 and anti-ICOSL, using a FACS Calibur instrument (BD). Plots and IC50 measurements were generated using GraphPad Prism Software.

SMILES: COc1cc(C(N)=O)nc(-c2cccc(C#C[C@]3(O)CCN(C)C3=O)c2)c1 [NIK SMI1]
- IC50 (human B cells): > 10 µM
- reduction of mortality (NZB/W F1 mice; 180 mg/kg BID P.O., 9 weeks): about 50%
- inhibition of NIK at the time point of lowest exposure (NZB/W F1 mice; 180 mg/kg, 12 h after the prior dose, based on PK sampling): about 70%
- proteinuria score (NZB/W F1 mice; 9 weeks of treatment, AUC day 19-84): statistically significant reduction
- survival (NZB/W F1 mice; IFNα-accelerated NZB/W F1 mice): improved survival
- splenic cellularity, frequency and absolute numbers of total B2, marginal zone and follicular B cells in the spleen (C57BL/6 mice; 6-400 mg/kg BID oral, 7 days): dose-dependently reduced
- reduction of serum IgA levels (C57BL/6 mice; after 1 week of treatment, oral BID): approximately 50%
- survival (FVB mice): efficacious; also recorded: improved survival
- IC50 [1]: 0.0846 µM
